Data as given in the supplement of paper PMC10307832.

What was measured:
Assay in all cases: relative viability (nuclei count vs DMSO), 5 days (fraction); higher = more cells survive
[1] = compound: C1COCCN1C2=NC(=NC3=C2OC4=C3C=CC=N4)C5=CC(=CC=C5)NC(=O)C6=CN=C(C=C6)N + CS(=O)(=O)N1CCN(Cc2cc3nc(-c4cccc5[nH]ncc45)nc(N4CCOCC4)c3s2)CC1 [Pictilisib] (partner 1 µM)
Method in brief: (§1)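 Five library-drug doses in √10 steps were combined with a fixed anchor-drug dose, or a single drug was given alone, by pin tool to lung cancer cell lines in 1536-well plates the day after seeding. Nuclei were stained and counted after 5 days. Relative viability is the nuclei count in treated wells over that in vehicle wells, taken as the median of duplicate plates.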

[2] = compound: CN1CCC(CNc2ccc3ncc(-c4cccc(OC(F)(F)F)c4)n3n2)CC1 [SGI-1776] + N=C(N)NC(=N)NCCc1ccccc1 [Phenformin] (partner 250 µM)
Method in brief: as §1

[3] = compound: CN1CCC(CNc2ccc3ncc(-c4cccc(OC(F)(F)F)c4)n3n2)CC1 [SGI-1776] + O=C(c1cc(Cc2n[nH]c(=O)c3ccccc23)ccc1F)N1CCN(C(=O)C2CC2)CC1 [Olaparib] (partner 8 µM)
Method in brief: as §1

[4] = compound: Nc1ccccc1NC(=O)c1ccc(CNC(=O)OCc2cccnc2)cc1 [Entinostat] + C[C@@H](Oc1cc(-c2cnn(C3CCNCC3)c2)cnc1N)c1c(Cl)ccc(F)c1Cl [Crizotinib] (partner 1 µM)
Method in brief: as §1

| Cell Line | relative viability ([1]; first compound 0.02 µM) | relative viability ([1]; first compound 0.06325 µM) | relative viability ([1]; first compound 0.2 µM) | relative viability ([1]; first compound 0.6325 µM) | relative viability ([1]; first compound 2 µM) | relative viability ([2]; first compound 0.08 µM) | relative viability ([2]; first compound 0.8 µM) | relative viability ([2]; first compound 2.53 µM) | relative viability ([2]; first compound 8 µM) | relative viability ([3]; first compound 0.08 µM) | relative viability ([3]; first compound 0.8 µM) | relative viability ([3]; first compound 2.53 µM) | relative viability ([3]; first compound 8 µM) | relative viability ([4]; first compound 0.02 µM) | relative viability ([4]; first compound 0.06325 µM) | relative viability ([4]; first compound 0.2 µM) | relative viability ([4]; first compound 0.6325 µM) | relative viability ([4]; first compound 2 µM) |
| --- | --- | --- | --- | --- | --- | --- | --- | --- | --- | --- | --- | --- | --- | --- | --- | --- | --- | --- |
| HARA | 0.273 | 0.319 | 0.329 | 0.326 | 0.291 | 0.532 | 0.337 | 0.354 | 0.318 | 1.09 | 0.986 | 0.667 | 0.57 | 1.02 | 1.02 | 1.05 | 0.974 | 0.565 |
| HCC-15 | 0.735 | 0.76 | 0.713 | 0.742 | 0.527 | 0.45 | 0.417 | 0.372 | 0.343 | 0.717 | 0.759 | 0.755 | 0.687 | 0.792 | 0.744 | 0.745 | 0.548 | 0.307 |
| HCC-44 | 0.508 | 0.607 | 0.65 | 0.506 | 0.399 | 0.197 | 0.174 | 0.151 | 0.125 | 0.998 | 0.973 | 0.89 | 0.984 | 0.773 | 0.614 | 0.453 | 0.339 | 0.22 |
| HCC-78 | 0.179 | 0.211 | 0.289 | 0.16 | 0.0668 | 0.779 | 0.775 | 0.695 | 0.592 | 0.891 | 0.91 | 0.801 | 0.95 | 0.37 | 0.293 | 0.234 | 0.163 | 0.141 |
| HCC-366 | 0.0246 | 0.144 | 0.107 | 0.107 | 0.204 | 0.61 | 0.527 | 0.564 | 0.431 | 0.347 | 0.449 | 0.379 | 0.294 | 0.447 | 0.407 | 0.283 | 0.0613 | 0.0249 |
| HCC-827 | 0.99 | 1.1 | 1.12 | 0.986 | 0.935 | 0.412 | 0.424 | 0.459 | 0.301 | 0.694 | 0.615 | 0.739 | 0.658 | 0.868 | 0.889 | 0.699 | 0.559 | 0.384 |
| HOP-62 | 0.792 | 0.82 | 0.698 | 0.876 | 0.499 | 0.728 | 0.616 | 0.704 | 0.623 | 0.436 | 0.63 | 0.448 | 0.59 | 0.951 | 1.03 | 0.812 | 0.618 | 0.288 |
| IA-LM | – | 0.301 | 0.319 | 0.353 | 0.182 | – | – | – | – | 0.97 | 0.785 | 0.919 | 0.846 | 0.731 | 0.855 | 0.928 | 0.728 | 0.651 |
| LC-2-ad | 0.441 | 0.51 | 0.526 | 0.443 | 0.487 | 0.572 | 0.554 | 0.667 | 0.362 | 0.755 | 0.776 | 0.756 | 0.696 | 0.521 | 0.4 | 0.36 | 0.296 | 0.241 |
| NCI-H522 | – | – | – | – | – | 0.708 | 0.676 | 0.698 | 0.563 | 0.612 | 0.52 | 0.623 | 0.551 | – | – | – | – | – |
| NCI-H1299 | 0.866 | 0.943 | 0.808 | 0.791 | 0.442 | – | – | – | – | 1.01 | 0.962 | 1.05 | 0.897 | 0.904 | 0.925 | 0.91 | 0.767 | 0.561 |
| NCI-H1395 | 0.699 | 0.604 | 0.569 | 0.587 | 0.57 | 0.464 | 0.434 | 0.46 | 0.413 | 0.473 | 0.452 | 0.438 | 0.347 | – | – | – | – | – |
| NCI-H1563 | 0.632 | 0.618 | 0.622 | 0.626 | 0.604 | 0.694 | 0.595 | 0.63 | 0.548 | – | – | – | – | 0.781 | 0.907 | 0.759 | 0.711 | 0.735 |
| NCI-H1623 | – | – | – | – | – | 0.611 | 0.571 | 0.556 | 0.626 | – | – | – | – | – | – | – | – | – |
| NCI-H1648 | – | – | – | – | – | – | – | – | – | 0.648 | 0.763 | 0.761 | 1.21 | – | – | – | – | – |
| NCI-H1703 | 0.23 | 0.255 | 0.239 | 0.251 | 0.232 | – | – | – | – | 0.338 | 0.394 | 0.387 | 0.12 | 0.674 | 0.786 | 0.884 | 0.415 | 0.358 |
| NCI-H1793 | 0.312 | 0.279 | 0.398 | 0.408 | 0.361 | 0.389 | 0.219 | 0.262 | 0.249 | 0.87 | 0.99 | 0.864 | 0.8 | – | – | – | – | – |
| NCI-H2342 | – | – | – | – | – | 0.696 | 0.669 | 0.532 | 0.501 | 0.525 | 0.445 | 0.454 | 0.49 | – | – | – | – | – |
| SW 900 | – | – | – | – | – | 0.731 | 0.563 | 0.538 | 0.348 | 0.792 | 0.886 | 1.15 | 0.636 | – | – | – | – | – |
